# Data published in US20040047829A1, “Fluids for sanitizing the teats of dairy animals” (priority 2002, published 2004).
# Experiment: Stability of ADBAC solutions
# Assay type: physicochemical
# Excerpt: The principal antibacterial ingredient in these formulations is alkyl dimethyl benzyl ammonium chloride (ADBAC). ADBAC is effective in killing the bacteria associated with mastitis in milking animals, and is not an oxidant. It also has a slight detergent action and so assists in cleaning dirt off of the animal's teats. […] It is inexpensive and is obtained commercially in a convenient dry form under the trade name TIMSEN. In TIMSEN, urea is used as a carrier and a buffer in a weight ratio of about three parts urea to two parts ADBAC by weight. Urea will be in the sanitizing fluid when TIMSEN is used as the stock source for ADBAC, however, it will be understood that urea is not an active ingredient in these formulations.
substance,measurement,value
alkyl dimethyl benzyl ammonium chloride [ADBAC],stability of solutions,stable for over a year
